Measured values from PubChem BioAssay (NCI).
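Five compound concentrations were applied to cells in 96-well plates for 48 hours; endpoints were derived by simple linear interpolation of the resulting dose-response curve. GI50 is the concentration that inhibits growth by half. TGI is the concentration that stops growth completely.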

Legend:
Experiment in all cases: DTP human tumour cell line panel, 48 h
T-47D breast = tested on: T-47D breast
MCF7 breast = tested on: MCF7 breast
NCI/ADR-RES ovarian = tested on: NCI/ADR-RES ovarian
HS 578T breast = tested on: HS 578T breast

Row | SMILES | GI50 (T-47D breast) | TGI (T-47D breast) | GI50 (MCF7 breast) | TGI (MCF7 breast) | GI50 (NCI/ADR-RES ovarian) | TGI (NCI/ADR-RES ovarian) | GI50 (HS 578T breast) | TGI (HS 578T breast)
1 | CCC(Sc1nnc2c3ccccc3n(CC)c2n1)C(=O)Nc1ccccc1OC (stereo unspecified) | 7.74 µM | > 100 µM | > 89.9 µM | > 100 µM | > 100 µM | > 100 µM | > 100 µM | > 100 µM
2 | CN1CCN(c2ccc3c4c(cccc24)C(=O)N(CCN2CCN(CCCN4CCN(CCN5C(=O)c6cccc7c(N8CCN(C)CC8)ccc(c67)C5=O)CC4)CC2)C3=O)CC1 | 19.8 µM | 50 µM | 5.06 µM | 18.5 µM | 4.2 µM | 10.3 µM | 10.6 µM | 38.7 µM
3 | Cn1c(=O)cc2c3c(c(NCCCO)ccc31)C(=O)c1ccccc1-2 | 13 µM | > 100 µM | 3.46 µM | > 100 µM | 5.2 µM | > 100 µM | 3.68 µM | > 100 µM
4 | COc1cnc2c(c1)C(=O)c1c-2n(CCCn2ccnc2)c(=O)c2cc(Cl)ccc12 | 0.0263 µM | 0.309 µM | < 0.01 µM |  | 0.03 µM | 12.5 µM | 11.4 µM | > 100 µM
5 | CCC[C@H](N[C@@H]1CCc2cc(F)cc(F)c2C1)C(=O)Nc1cn(C(C)(C)CNCC(C)(C)C)cn1 | 16 µM | > 65.4 µM | 15.6 µM | > 56.7 µM | 15.3 µM | > 81 µM | 15.3 µM | 64.4 µM
6 | N#Cc1ccccc1C#C/C=C\C#Cc1ccc(OCCCNC(=O)c2cc3ccccc3[nH]2)cc1 | 12.4 µM | 29.7 µM | 33.4 µM | > 100 µM | 23.5 µM | > 100 µM |  | 
7 | CN1C(=O)CNC(=O)[C@H](NC(=O)c2nc3ccccc3cc2O)CSSC[C@H]1C(=O)NCCc1nc2ccccc2cc1O | 8.09 µM | 29.7 µM | 6.23 µM | 27.4 µM | > 88.5 µM | > 100 µM | 21.5 µM | 67 µM
8 | O=C(Nc1cc(C(F)(F)F)ccc1F)Nc1n[nH]c2ccccc12 | 0.215 µM | > 100 µM | 18.2 µM | > 100 µM | > 100 µM | > 100 µM | > 100 µM | > 100 µM
9 | O=C(Nc1ccc(Br)cc1)Nc1n[nH]c2ccccc12 | > 100 µM | > 100 µM | 42.1 µM | > 100 µM | > 100 µM | > 100 µM | 46.8 µM | > 100 µM
10 | CN1CCN(c2ccc3nc(-c4cc(C(C)(C)C)c(O)c(C(C)(C)C)c4)[nH]c3c2)CC1 | 2.86 µM | 7.61 µM | 1.8 µM | 4.14 µM | 5.48 µM | 20 µM | 2.33 µM | 5.51 µM
11 | Nc1cc(-c2ccccc2)ccc1O | 55.3 µM | > 100 µM | > 100 µM | > 100 µM | 45 µM | > 100 µM |  | 
12 | CC(=O)OC1COC(S[As](C)C)C(OC(C)=O)C1OC(C)=O (stereo unspecified) | 2.67 µM | 19.9 µM | 0.165 µM | 5.2 µM | 0.155 µM | 0.974 µM | 0.344 µM | 0.916 µM
13 | CS(=O)(=O)CCNCc1ccc(-c2ccc3ncnc(Nc4ccc(OCc5cccc(C(F)(F)F)c5)cc4)c3c2)o1 | 7.6 µM | > 23 µM | 6.38 µM | > 15 µM | 7.19 µM | > 25 µM | 7.02 µM | > 19.4 µM
14 | COc1cc(CSc2nc3ccc(C)cc3c(=O)n2Cc2ccccc2)cc(OC)c1OC | 2.98 µM | 32.6 µM | 0.587 µM | 22.8 µM | 1.51 µM | 14.6 µM | 2.57 µM | 48.8 µM
15 | COC(=O)CCC(=O)c1c(C)[nH]c(/C=C2\N=C(c3ccc[nH]3)C=C2OC)c1C | 0.931 µM | 4.09 µM | 0.567 µM | 2.03 µM | 0.728 µM | 3.66 µM | 1.35 µM | 4.07 µM
16 | C=CC1CC12C(=O)C1OC2(C)C2C(=O)c3c(ccc4c3ccc3ccccc34)C(=O)C12 (stereo unspecified) | 19.7 µM | > 100 µM | 34.2 µM | > 100 µM | 74.9 µM | > 100 µM | 68.1 µM | > 100 µM
17 | COCCOC(=O)C1=C(C)NC2=C(C(=O)CC(c3ccccc3OC)C2)C1c1cccc(O)c1 (stereo unspecified) | 5.99 µM | 54.3 µM | 4.31 µM | 72.4 µM | 35.9 µM | > 100 µM | 2.04 µM | > 26.2 µM
18 | CCCCCCCCCCCCCCCc1cc(O)ccc1N | 0.132 µM | 1.76 µM | 23 µM | > 100 µM | 5.81 µM | 68.8 µM | 17 µM | 99.4 µM
19 | COc1ccc(-c2n[nH]nc2-c2csc3ccccc23)cc1OC | 2.83 µM | 32.6 µM | 1.45 µM | 15.1 µM | 2.39 µM | 23.2 µM | 2.25 µM | 10.6 µM
20 | COc1ccc2[nH]cc(-c3nc(-c4cn(C)c5ccncc45)cs3)c2c1 |  |  | 1.81 µM | 3.65 µM |  |  | 14.7 µM | 41.6 µM
